Test results taken from PubChem BioAssay AID493112 (Sanford-Burnham Center for Chemical Genomics, 2011).
Active and inactive are the calls of the source.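 How the source made its calls: active means mean half-maximal activation concentration below 100 µM; inactive means the rest.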

Target: Alkaline phosphatase, tissue-nonspecific isozyme (Homo sapiens) (UniProt P05186)
Test: effect of analogs on TNAP activity, SAR follow-up, selectivity assay for human IAP activator project, biochemical, human TNAP (AID 493112)
Conditions: purified TNAP, CDP-Star luminescence, 30 min

Sequence of Alkaline phosphatase, tissue-nonspecific isozyme (Homo sapiens) (P05186 whole entry, looked up): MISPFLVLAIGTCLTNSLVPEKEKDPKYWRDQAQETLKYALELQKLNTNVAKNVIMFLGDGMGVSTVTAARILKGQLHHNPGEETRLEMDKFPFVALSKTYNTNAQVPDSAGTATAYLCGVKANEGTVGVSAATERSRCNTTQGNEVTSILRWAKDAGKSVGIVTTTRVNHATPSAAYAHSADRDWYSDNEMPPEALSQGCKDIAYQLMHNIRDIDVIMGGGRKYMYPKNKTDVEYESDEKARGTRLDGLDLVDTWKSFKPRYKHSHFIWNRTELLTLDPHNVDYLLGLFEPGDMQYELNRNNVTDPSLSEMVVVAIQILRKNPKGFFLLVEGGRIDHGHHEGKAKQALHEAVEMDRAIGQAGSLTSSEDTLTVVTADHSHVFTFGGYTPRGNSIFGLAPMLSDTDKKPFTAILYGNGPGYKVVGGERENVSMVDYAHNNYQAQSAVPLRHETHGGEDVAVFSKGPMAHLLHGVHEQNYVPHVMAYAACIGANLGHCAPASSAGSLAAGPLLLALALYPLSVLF

IC50 (inhibition of TNAP activity) | SMILES
> 100 µM (inactive) | O=C(N/N=C/c1c(O)ccc2ccccc12)C(=O)N/N=C/c1c(O)ccc2ccccc12
> 100 µM (inactive) | O=C(N/N=C/c1c(O)ccc2ccccc12)c1cc(-c2cccs2)[nH]n1
6.16 µM | Cc1ccc(-c2cc(C(=O)NN=Cc3ccccc3O)n[nH]2)o1
> 100 µM (inactive) | O=C(NN=Cc1c(O)ccc2ccccc12)c1[nH]ncc1Br
> 100 µM (inactive) | COc1cc(/C=N/NC(=O)C(=O)N/N=C/c2ccc(O)c(OC)c2)ccc1O
9.38 µM | Cn1cccc1-c1cc(C(=O)NN=Cc2cc(Br)ccc2O)[nH]n1
4.74 µM | O=C(N/N=C/c1ccccc1O)c1n[nH]c2c1CCC2
7.51 µM | O=C(N/N=C/c1ccccc1O)c1cc(C2CC2)[nH]n1
10.9 µM | COc1cccc(C=NNC(=O)c2[nH]nc3c2CCc2ccccc2-3)c1O
8.35 µM | Cc1cc(C(=O)N/N=C/c2cc(Br)ccc2O)n[nH]1
> 100 µM (inactive) | Cc1cc(C(=O)NN=Cc2cccc([N+](=O)[O-])c2O)n[nH]1
12.2 µM | CCOc1cccc(C=NNC(=O)c2cc(C3CC3)[nH]n2)c1O
10.3 µM | CC(=O)Nc1cccc(C(=O)NNC(=O)c2n[nH]c(=O)c3ccccc23)c1
> 100 µM (inactive) | O=C(N/N=C/c1cc(Br)ccc1O)C(=O)N/N=C/c1cc(Br)ccc1O
> 100 µM (inactive) | COc1ccc(-c2csc(Nc3cccc4ccccc34)n2)cc1F
8.78 µM | C/C(=N\NC(=O)c1[nH]nc2c1CCc1ccccc1-2)c1ccccc1O
> 100 µM (inactive) | CCOc1cc(/C=N/NC(=O)C(=O)N/N=C/c2ccc(O)c(OCC)c2)ccc1O
> 100 µM (inactive) | O=C(N/N=C\c1cccc(O)c1)C(=O)N/N=C/c1cccc(O)c1
> 100 µM (inactive) | COc1ccc(-c2cc(C(=O)NN=Cc3c(O)ccc4ccccc34)[nH]n2)cc1
10.2 µM | CCOc1cccc(C=NNC(=O)c2cc(-c3cccn3C)n[nH]2)c1O
> 100 µM (inactive) | C/C(=N\NC(=O)c1cc(C)[nH]n1)c1ccc2ccccc2c1O
8.03 µM | O=C(N/N=C/c1cc(Br)ccc1O)c1cc(C2CC2)[nH]n1
15.6 µM | Cc1ccc(O)c(C=NNC(=O)c2[nH]ncc2Br)c1
> 100 µM (inactive) | O=C(CCN1C(=O)/C(=C/c2ccccc2Cl)SC1=S)NNC(=O)c1ccccc1O
24.5 µM | O=C(NN=Cc1ccccc1)C(=O)NN=Cc1ccccc1
7.22 µM | Cc1cc(C(=O)N/N=C\c2cc(C(C)(C)C)ccc2O)n[nH]1
> 100 µM (inactive) | Cc1cc(C(=O)NN=Cc2cc(Cl)cc([N+](=O)[O-])c2O)n[nH]1
9.52 µM | COc1cccc(C=NNC(=O)c2cc(-c3cccn3C)n[nH]2)c1O

The next lines start with the compound.

SMILES | IC50 (inhibition of TNAP activity)
CC(C)C(=O)NC(=S)Nc1ccccc1C(=O)Nc1ccccc1 | 10.4 µM
COc1cc(OC)c(OC)cc1/C=N/NC(=O)C(=O)N/N=C/c1cc(OC)c(OC)cc1OC | > 100 µM (inactive)
CC(=NNC(=O)C(=O)NN=C(C)c1cccc(O)c1)c1cccc(O)c1 | > 100 µM (inactive)
CCCCOc1ccc(/C=N/NC(=O)C(=O)N/N=C/c2ccc(OCCCC)cc2)cc1 | > 100 µM (inactive)
N#CCOc1ccccc1/C=N/NC(=O)C(=O)N/N=C/c1ccccc1OCC#N | > 100 µM (inactive)
COc1cc(OC)cc(C(=O)NNC(=O)c2nn(C)c(=O)c3ccccc23)c1 | 10.9 µM
COc1ccc(/C=N/NC(=O)C(=O)N/N=C/c2ccc(OC)c(OC)c2)cc1OC | > 100 µM (inactive)
O=C(NN=Cc1ccc(O)cc1O)C(=O)NN=Cc1ccc(O)cc1O | > 100 µM (inactive)
COc1ccc(OC)c(/C=N/NC(=O)C(=O)N/N=C/c2cc(OC)ccc2OC)c1 | 69.5 µM
O=C(NC(=S)NNC(=O)c1ccccc1O)c1ccc(F)cc1 | 11.5 µM
CC(C)Oc1ccccc1/C=N/NC(=O)C(=O)N/N=C/c1ccccc1OC(C)C | 54.3 µM
COC(=O)c1ccc(/C=N/NC(=O)C(=O)N/N=C/c2ccc(C(=O)OC)cc2)cc1 | > 100 µM (inactive)
CC(=O)Nc1ccc(/C=N/NC(=O)C(=O)N/N=C/c2ccc(NC(C)=O)cc2)cc1 | > 100 µM (inactive)
O=C(NNC(=S)NC(=O)c1ccccc1[N+](=O)[O-])c1ccccc1O | 15.3 µM
COc1cccc(C=NNC(=O)C(=O)NN=Cc2cccc(OC)c2O)c1O | > 100 µM (inactive)
CCN(CC)c1ccc(/C=N/NC(=O)C(=O)N/N=C/c2ccc(N(CC)CC)cc2O)c(O)c1 | > 100 µM (inactive)
COc1cccc(C=NNC(=O)C(=O)NN=Cc2cccc(OC)c2OC)c1OC | 36.1 µM
COc1cc(/C=N\NC(=O)C(=O)N/N=C/c2cc(OC)c(O)c(OC)c2)cc(OC)c1O | > 100 µM (inactive)
O=C(N/N=C/c1ccc(O)cc1)C(=O)N/N=C/c1ccc(O)cc1 | > 100 µM (inactive)
CN(C)c1ccc(/C=N/NC(=O)C(=O)N/N=C/c2ccc(N(C)C)cc2)cc1 | > 100 µM (inactive)
O=C(N/N=C/c1ccccc1C(=O)O)C(=O)N/N=C/c1ccccc1C(=O)O | 36.2 µM
O=C(N/N=C/c1ccc2c(c1)OCO2)C(=O)N/N=C/c1ccc2c(c1)OCO2 | > 100 µM (inactive)
COc1cccc(C=NNC(=O)C2=NNC(=O)C2C)c1O (stereo not given) | 12.1 µM
CC1C(=O)NN=C1C(=O)NN=Cc1ccc(O)cc1O (stereo not given) | > 100 µM (inactive)
OC(c1nc2ccc(F)cc2[nH]1)C(O)c1nc2ccc(F)cc2[nH]1 (stereo not given) | 7.21 µM
O=C(N/N=C\c1ccc2c(c1)OCO2)C(=O)N/N=C/c1ccc2c(c1)OCO2 | > 100 µM (inactive)
COc1cc(/C=N/NC(=O)C(=O)N/N=C/c2cc(OC)c(OC)c(OC)c2)cc(OC)c1OC | > 100 µM (inactive)
